According to US5578616A, “Phenyl-alkyl-imidazoles” (Schering Corporation, priority 1995, dated 1996):

Test system: H3 receptors
Assay: not given
Settings: rat; cited from earlier work

Row | Structure (SMILES) | short-term memory and reversal learning
1 | S=C(NC1CCCCC1)N1CCC(c2cnc[nH]2)CC1 [thioperamide] | can improve short-term memory and reversal learning

Test system: histamine H3 receptor
Assay: not given
Settings: mice, electrically induced convulsions; cited from earlier work

Row | Structure (SMILES) | duration of each phase of convulsion
2 | S=C(NC1CCCCC1)N1CCC(c2cnc[nH]2)CC1 [thioperamide] | decreased the duration of each phase of convulsion

Same assay, conditions: mice; cited from earlier work

Row | Structure (SMILES) | electroconvulsive threshold
3 | S=C(NC1CCCCC1)N1CCC(c2cnc[nH]2)CC1 [thioperamide] | raised the electroconvulsive threshold

Molecular target: T1, H3 receptor (Cavia porcellus, UniProt Q9JI35)
T1 construct: The source of the H3 receptors in this experiment was guinea pig brain; from tissue; host or cells: guinea pig brain membranes
Assay: H3 Receptor Binding Assay
Parameters: species or system guinea pig
Settings: not given
Description: The source of the H3 receptors in this experiment was guinea pig brain. The animals weighed 400-600 g. The brain tissue was homogenized using a Polytron in a solution of 50 mM Tris, pH 7.5. The final concentration of tissue in the homogenization buffer was 10% w/v. The homogenates were centrifuged at 1,000× g for 10 min. in order to remove clumps of tissue and debris. The resulting supernatants were then centrifuged at 50,000× g for 20 min. in order to sediment the membranes, which were next washed three times in homogenization buffer (50,000× g for 20 min. each). The membranes were frozen and stored at -70° C. until needed.
All compounds to be tested were dissolved in DMSO and then diluted into the binding buffer (50 mM Tris, pH 7.5) such that the final concentration was 2 μg/mL with 0.1% DMSO. Membranes were then added (400 μg of protein) to the reaction tubes. The reaction was started by the addition of 3 nM [^3 H]R-α-methylhistamine (8.8 Ci/mmol) or 3 nM [^3 H]N^α -methylhistamine (80 Ci/mmol) and continued under incubation at 30° C. for 30 min. Bound ligand was separated from unbound ligand by filtration, and the amount of radioactive ligand bound to the membranes was quantitated by liquid scintillation spectrometry. All incubations were performed in duplicate and the standard error was always less than 10%. Compounds that inhibited more than 70% of the specific binding of radioactive ligand to the receptor were serially diluted to determine a Ki (μM).

T1 sequence (Q9JI35 whole entry): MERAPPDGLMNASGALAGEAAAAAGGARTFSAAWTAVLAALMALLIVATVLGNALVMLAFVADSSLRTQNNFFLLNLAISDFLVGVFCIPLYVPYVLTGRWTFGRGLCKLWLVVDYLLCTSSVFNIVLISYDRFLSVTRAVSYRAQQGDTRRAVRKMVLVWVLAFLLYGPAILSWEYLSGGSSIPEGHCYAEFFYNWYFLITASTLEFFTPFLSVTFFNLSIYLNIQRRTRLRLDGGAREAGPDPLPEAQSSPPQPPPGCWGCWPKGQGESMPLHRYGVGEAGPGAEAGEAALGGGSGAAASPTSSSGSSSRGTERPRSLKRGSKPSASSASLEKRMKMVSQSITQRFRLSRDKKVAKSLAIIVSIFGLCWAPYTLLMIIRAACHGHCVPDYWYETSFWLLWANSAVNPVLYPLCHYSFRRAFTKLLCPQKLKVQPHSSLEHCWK

Row | Structure (SMILES) | Ki
4 | NCc1ccc(Cc2c[nH]cn2)cc1 [Compound 21, 4-[(1H-Imidazol-4-yl)methyl]benzenemethanamine] | 78 nM
5 | COc1ccc(C/N=C(\N)c2ccc(Cc3c[nH]cn3)cc2)cc1 [Compound 6a, N-[(4-Methoxyphenyl)methyl]-4-[(1H-imidazol-4-yl)methyl]benzene methanimidamide] | 560 nM
6 | N=C(CCc1ccc(Cc2cnc[nH]2)cc1)NCc1ccc(Cl)cc1 [Compound 27, N-[(4-Chlorophenyl)methyl]-4-[(1H-imidazol-4-yl)methyl]benzene propanimidamide] | 180 nM
7 | N=C(NCc1ccc(Cl)cc1)c1ccc(Cc2c[nH]cn2)cc1 [Compound 6, N-[(4-Chlorophenyl)methyl]-4-[(1H-imidazol-4-yl)methyl]benzene methanimidamide] | 14 nM
8 | O=C(Nc1ccc(Cl)cc1)OCc1ccc(Cc2c[nH]cn2)cc1 [Compound 38, [4-(1H-Imidazol-4-ylmethyl)phenyl]methyl N-(4-chlorophenyl)carbamate] | 24 nM

Same assay, conditions: guinea pig brain membranes; 3 nM [^3 H]R-α-methylhistamine or 3 nM [^3 H]N^α -methylhistamine; 30° C., 30 min, pH 7.5; read-out: Ki

Row | Structure (SMILES) | Ki
9 | N=C(N)c1ccc(CCc2cnc[nH]2)cc1 [Compound 17, 4-[(1H-Imidazol-4-yl)ethyl]benzene methanimidamide] | 170 nM
10 | N=C(NCc1ccc(C(F)(F)F)cc1)c1ccc(Cc2c[nH]cn2)cc1 [Compound 6b, N-[(4-trifluoromethylphenyl)methyl]-4-[(1H-imidazol-4-yl)methyl]benzenemethanimidamide] | 140 nM
11 | N=C(NCCc1ccccc1)c1ccc(Cc2c[nH]cn2)cc1 [Compound 6d, N-(2-Phenylethyl)-4-[(1H-imidazol-4-yl)methyl]benzene methanimidamide] | 450 nM
12 | N=C(Cc1ccc(Cc2c[nH]cn2)cc1)NCc1ccc(Cl)cc1 [Compound 29, N-[(4-Chlorophenyl)methyl]-4-[(1H-imidazol-4-yl)methyl]benzene ethanimidamide] | 7.2 nM
13 | N=C(N)c1cccc(Cc2c[nH]cn2)c1 [Compound 10, 3-[(1H-Imidazol-4-yl)methyl]benzene methanimidamide] | 310 nM
14 | N=C(N)c1cccc(CCc2c[nH]cn2)c1 [Compound 16, 3-[(1H-Imidazol-4-yl)ethyl]benzene methanimidamide] | 220 nM
15 | N=C(N)c1ccc(Cc2c[nH]cn2)cc1 [Compound 9, 4-[(1H-Imidazol-4-yl)methyl]benzene methanimidamide] | 38 nM

Same assay, conditions: pH 7.5, read-out: Inhibition of binding of radioactive ligand, Inhibition (%) at 2 μg/ml

Row | Structure (SMILES) | inhibition at 2 µg/mL
16 | O=C(OCc1ccc(Cl)cc1)c1ccc(Cc2c[nH]cn2)cc1 [Compound 43, (4-Chlorophenyl)methyl 4-(1H-imidazol-4-ylmethyl)benzoate] | 16 to 78%
17 | Clc1ccc(COCc2ccc(Cc3c[nH]cn3)cc2)cc1 [Compound 36, 4-[[4-[[(4-Chlorophenyl)methoxy]methyl]phenyl]methyl]-1H-imidazole] | 6 to 87%
18 | N=C(NCc1ccncc1)c1ccc(Cc2c[nH]cn2)cc1 [Compound 6c, N-[(4-Pyridyl)methyl]-4-[(1H-imidazol-4-yl)methyl]benzene methanimidamide] | 48%
19 | O=C(NCc1ccc(Cl)cc1)c1ccc(Cc2c[nH]cn2)cc1 [Compound 33, N-[(4-Chlorophenyl)methyl]-4-(1H-imidazol-4-ylmethyl)benzamide] | 61%
20 | O=C(OCc1ccc(Cc2c[nH]cn2)cc1)c1ccc(Cl)cc1 [Compound 40, [4-(1H-Imidazol-4-ylmethyl)phenyl]methyl 4-chlorobenzoate] | 10%
